Test results reported in patent US8362000B2, “Azetidinyl diamides as monoacylglycerol lipase inhibitors” (Janssen Pharmaceutica NV, priority 2009, dated 2013).
Where a chain is given by its changes, count along the chain named. Read-outs that look alike come from different tables or passages of the source.

Key:
mutant MGL = molecular target: T1, mutant MGL (Homo sapiens, UniProt Q99685, L169S/L176S); test: MGL ThermoFluor assay - mutant; type: binding
T1 sequence (Q99685 1-303 L169S/L176S): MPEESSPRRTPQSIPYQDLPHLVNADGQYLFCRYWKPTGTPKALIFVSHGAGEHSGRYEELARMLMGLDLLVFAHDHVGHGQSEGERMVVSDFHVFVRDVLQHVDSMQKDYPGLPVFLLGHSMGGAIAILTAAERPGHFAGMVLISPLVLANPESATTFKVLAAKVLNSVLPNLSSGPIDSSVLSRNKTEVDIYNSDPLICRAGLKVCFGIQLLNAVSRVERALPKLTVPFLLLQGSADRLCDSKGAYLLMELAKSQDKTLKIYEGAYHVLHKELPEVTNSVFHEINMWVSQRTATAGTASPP

[1] = molecular target: T2, purified wild type MGL (wt-MGLL 6H-11-313) (Homo sapiens, UniProt Q99685)
T2 sequence (Q99685 1-303): T1 sequence (Q99685 1-303 L169S/L176S) with S169L, S176L

[2] = ThermoFluor thermal stability binding assay, read-out: MGL mutant ThermoFluor Kd
[3] = ThermoFluor concentration-response, read-out: MGL mutant ThermoFluor Kd
[4] = compound concentration measured by qNMR, read-out: MGL mutant ThermoFluor qKd (using qNMR conc.)
[5] = ThermoFluor, compound concentration measured by qNMR, read-out: MGL mutant ThermoFluor qKd (μM) (using qNMR conc.)
[6] = ThermoFluor, compound concentration measured by qNMR, read-out: MGL mutant ThermoFluor qKd (using qNMR conc.)

Compound	IC50 [1]	Kd (mutant MGL; [3])	further results
O=C(c1ccc(-c2cccc(C(F)(F)F)c2)cc1)N1CC(N2CCN(C(=O)c3nccs3)CC2)C1 [Cpd 237, 1-(1,3-Thiazol-2-ylcarbonyl)-4-(1-{[3′-(trifluoromethyl)biphenyl-4-yl]carbonyl}azetidin-3-yl)piperazine]	< 5 nM	–	Kd (mutant MGL; [2]): 0.001 µM
O=C(c1ccc(CS(=O)(=O)c2cccc(C(F)(F)F)c2)cc1)N1CC(N2CCN(C(=O)c3nccs3)CC2)C1 [Cpd 976, 1-(1,3-Thiazol-2-ylcarbonyl)-4-(1-{[4-({[3-(trifluoromethyl)phenyl]sulfonyl}methyl)phenyl]carbonyl}azetidin-3-yl)piperazine]	574 nM	1.84 µM	–
CN(C(=O)Cn1ccc2cc(C(=O)N3CC(N4CCN(C(=O)c5nccs5)CC4)C3)ccc21)c1ccccc1 [Cpd 1031]	111 nM	–	Kd (mutant MGL; [4]): 0.134 µM
O=C(c1ccc2[nH]ncc2c1)N1CC(N2CCN(C(=O)c3nccs3)CC2)C1 [Cpd 820, 5-({3-[4-(1,3-Thiazol-2-ylcarbonyl)piperazin-1-yl]azetidin-1-yl}carbonyl)-1H-indazole]	2810 nM	–	Kd (mutant MGL; [5]): 0.996 µM
O=C(c1cccnc1)c1c[nH]c2cc(C(=O)N3CC(N4CCN(C(=O)c5nccs5)CC4)C3)ccc12 [Cpd 950]	1500 nM	–	Kd (mutant MGL; [4]): 0.883 µM
O=C(c1ccc(-c2ccccc2)cc1)N1CC(N2CCN(C(=O)C3CCC3)CC2)C1 [Cpd 1232]	326 nM	–	Kd (mutant MGL; [2]): 0.345 µM
O=C(c1ccc(Oc2ccc(Br)cn2)cc1)N1CC(N2CCN(C(=O)c3cscn3)CC2)C1 [Cpd 765]	667 nM	3.09 µM	–
O=C(c1ccc2cn(Cc3ccc(F)cc3)nc2c1)N1CC(N2CCN(C(=O)c3nccs3)CC2)C1 [Cpd 1052, 2-(4-Fluorobenzyl)-6-({3-[4-(1,3-thiazol-2-ylcarbonyl)piperazin-1-yl]azetidin-1-yl}carbonyl)-2H-indazole]	28 nM	–	Kd (mutant MGL; [4]): 0.065 µM
Cc1nn(-c2ccc(F)cc2)c2ncc(C(=O)N3CC(N4CCN(C(=O)c5nccs5)CC4)C3)cc12 [Cpd 1203]	153 nM	–	Kd (mutant MGL; [6]): 0.015 µM
O=C(c1ccc2c(=O)c3ccccc3oc2c1)N1CC(N2CCN(C(=O)c3nccs3)CC2)C1 [Cpd 710]	123 nM	–	Kd (mutant MGL; [6]): 0.197 µM
O=C(c1cc2ccc(-c3ccc(F)cc3)cc2[nH]1)N1CC(N2CCN(C(=O)c3nccs3)CC2)C1 [Cpd 1204]	166 nM	–	Kd (mutant MGL; [5]): 0.249 µM
O=C(Nc1ccc(C(=O)N2CC(N3CCN(C(=O)c4nccs4)CC3)C2)cc1)C1CCCCC1 [Cpd 709]	118 nM	0.015 µM	–
O=C(c1cc2ccc(C(F)(F)F)cc2[nH]1)N1CC(N2CCN(C(=O)c3nccs3)CC2)C1 [Cpd 756]	519 nM	0.383 µM	–
O=C(c1ccc2c(c1)ncn2CCC(F)(F)F)N1CC(N2CCN(C(=O)c3cscn3)CC2)C1 [Cpd 851]	7870 nM	–	Kd (mutant MGL; [4]): 0.883 µM
O=C(c1ccc2nn(Cc3ccc(F)cc3)cc2c1)N1CC(N2CCN(C(=O)c3nccs3)CC2)C1 [Cpd 1030, 2-(4-Fluorobenzyl)-5-({3-[4-(1,3-thiazol-2-ylcarbonyl)piperazin-1-yl]azetidin-1-yl}carbonyl)-2H-indazole]	13 nM	–	Kd (mutant MGL; [4]): 0.033 µM
O=C(c1ccc(-c2ccc(C(F)(F)F)cc2)cc1)N1CC(N2CCN(C(=O)c3nccs3)CC2)C1 [Cpd 150, 1-(1,3-Thiazol-2-ylcarbonyl)-4-(1-{[4′-(trifluoromethyl)biphenyl-4-yl]carbonyl}azetidin-3-yl)piperazine]	< 5 nM	0.0033 µM	–
O=C(c1nccs1)N1CC(N2CCN(C(=O)c3cc4cc(C(F)(F)F)ccc4s3)C(c3ccccc3)C2)C1 (centres unmarked) [Cpd 804]	1990 nM	0.105 µM	–
O=C(c1ccc2c(-c3ccccc3)c(-c3ccccc3)[nH]c2c1)N1CC(N2CCN(C(=O)c3nccs3)CC2)C1 [Cpd 1119]	17 nM	–	Kd (mutant MGL; [6]): 0.02 µM
O=C(c1nccs1)N1CCN(C2CN(C(=O)c3cccc4oc(-c5cccnc5)nc34)C2)CC1 [Cpd 1251]	684 nM	–	Kd (mutant MGL; [2]): 0.146 µM
